{"source": "patent US6355799B1", "about": "“Substituted benzene compounds, process for their preparation, and herbicidal and defoliant compositions containing them” (ISK Americas Incorporated, priority 1997, dated 2002)", "type_in_all_cases": "in vivo", "key": {"[1]": {"test_system": "upland rice (Oryza sp., var. Tebonnet, RICE)", "assay": "Post-emerge test, crop safety", "settings": "post-emerge, 14 days after application, rating scale 0-100", "how_it_was_run": "(§1)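 Sandy loam pots; pre-emerge: sown 1 d pre-spray, surface-watered after, then bottom-watered. Post-emerge: sown 8–21 d before, 2–3 leaf stage, + 0.25% v/v NIS, bottom-watered. Acetone, 187 l/ha track spray, 15–1000 g ai/ha. 0–100 injury score, day 14.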"}, "[2]": {"test_system": "field corn (Zea mays L., var. Dekalb 535, CORN)", "assay": "Post-emerge test, crop safety", "settings": "post-emerge, 14 days after application, rating scale 0-100", "how_it_was_run": "as §1"}, "[3]": {"test_system": "velvetleaf (Abutilon theophrasti, ABUTH)", "assay": "Pre-emerge test, greenhouse herbicide activity screening", "settings": "pre-emerge, 14 days after application, rating scale 0-100", "how_it_was_run": "as §1"}, "[4]": {"test_system": "lambsquarters (Chenopodium album, CHEAL)", "assay": "Pre-emerge test, greenhouse herbicide activity screening", "settings": "pre-emerge, 14 days after application, rating scale 0-100", "how_it_was_run": "as §1"}, "[5]": {"test_system": "barnyardgrass (Echinochloa crus-galli, ECHCG)", "assay": "Pre-emerge test, greenhouse herbicide activity screening", "settings": "pre-emerge, 14 days after application, rating scale 0-100", "how_it_was_run": "as §1"}, "[6]": {"test_system": "ivyleaf morningglory (Ipomoea hederacea, IPOHE)", "assay": "Pre-emerge test, greenhouse herbicide activity screening", "settings": "pre-emerge, 14 days after application, rating scale 0-100", "how_it_was_run": "as §1"}, "[7]": {"test_system": "green foxtail (Setaria viridis, SETVI)", "assay": "Pre-emerge test, greenhouse herbicide activity screening", "settings": "pre-emerge, 14 days after application, rating scale 0-100", "how_it_was_run": "as §1"}, "[8]": {"test_system": "johnsongrass (Sorghum halepense, SORHA)", "assay": "Pre-emerge test, greenhouse herbicide activity screening", "settings": "pre-emerge, 14 days after application, rating scale 0-100", "how_it_was_run": "as §1"}, "[9]": {"test_system": "sicklepod (Cassia obtusifolia, CASOB)", "assay": "Pre-emerge test, greenhouse herbicide activity screening", "settings": "pre-emerge, 14 days after application, rating scale 0-100", "how_it_was_run": "as §1"}, "[10]": {"test_system": "large crabgrass (Digitaria sanguinalis, DIGSA)", "assay": "Pre-emerge test, greenhouse herbicide activity screening", "settings": "pre-emerge, 14 days after application, rating scale 0-100", "how_it_was_run": "as §1"}, "[11]": {"test_system": "upland rice (Oryza sp., var. Tebonnet, RICE)", "assay": "Pre-emerge test, crop safety", "settings": "pre-emerge, 14 days after application, rating scale 0-100", "how_it_was_run": "(§2)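 Plants grown in 10 cm pots of sandy loam mix received acetone-dissolved compounds through a moving flat-fan nozzle. Doses ranged from 15 to 1000 g ai/ha. Pre-emerge pots were seeded one day earlier, post-emerge pots 8–21 days earlier. Fourteen days on, each pot was graded 0–100 for damage.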"}, "[12]": {"test_system": "field corn (Zea mays L., var. Dekalb 535, CORN)", "assay": "Pre-emerge test, crop safety", "settings": "pre-emerge, 14 days after application, rating scale 0-100", "how_it_was_run": "as §2"}, "[13]": {"test_system": "redroot pigweed (Amaranthus retroflexus, AMARE)", "assay": "Pre-emerge test, greenhouse herbicide activity screening", "settings": "pre-emerge, 14 days after application, rating scale 0-100", "how_it_was_run": "as §1"}, "[14]": {"test_system": "velvetleaf (Abutilon theophrasti, ABUTH)", "assay": "Post-emerge test, greenhouse herbicide activity screening", "settings": "post-emerge, 14 days after application, rating scale 0-100", "how_it_was_run": "(§3)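 Applied at 15–1000 g ai/ha from acetone in 187 l/ha spray volume. Post-emergence applications included 0.25% v/v non-ionic surfactant and reached plants sown 8–21 days before. Pre-emergence applications were incorporated by surface watering. Efficacy or crop damage was rated on a 0–100 scale after 14 days.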"}, "[15]": {"test_system": "lambsquarters (Chenopodium album, CHEAL)", "assay": "Post-emerge test, greenhouse herbicide activity screening", "settings": "post-emerge, 14 days after application, rating scale 0-100", "how_it_was_run": "as §3"}, "[16]": {"test_system": "barnyardgrass (Echinochloa crus-galli, ECHCG)", "assay": "Post-emerge test, greenhouse herbicide activity screening", "settings": "post-emerge, 14 days after application, rating scale 0-100", "how_it_was_run": "as §3"}, "[17]": {"test_system": "ivyleaf morningglory (Ipomoea hederacea, IPOHE)", "assay": "Post-emerge test, greenhouse herbicide activity screening", "settings": "post-emerge, 14 days after application, rating scale 0-100", "how_it_was_run": "as §3"}, "[18]": {"test_system": "green foxtail (Setaria viridis, SETVI)", "assay": "Post-emerge test, greenhouse herbicide activity screening", "settings": "post-emerge, 14 days after application, rating scale 0-100", "how_it_was_run": "as §3"}, "[19]": {"test_system": "redroot pigweed (Amaranthus retroflexus, AMARE)", "assay": "Post-emerge test, greenhouse herbicide activity screening", "settings": "post-emerge, 14 days after application", "how_it_was_run": "as §3"}, "[20]": {"test_system": "johnsongrass (Sorghum halepense, SORHA)", "assay": "Post-emerge test, greenhouse herbicide activity screening", "settings": "post-emerge, 14 days after application, rating scale 0-100", "how_it_was_run": "as §3"}, "[21]": {"test_system": "sicklepod (Cassia obtusifolia, CASOB)", "assay": "Post-emerge test, greenhouse herbicide activity screening", "settings": "post-emerge, 14 days after application, rating scale 0-100", "how_it_was_run": "as §3"}, "[22]": {"test_system": "large crabgrass (Digitaria sanguinalis, DIGSA)", "assay": "Post-emerge test, greenhouse herbicide activity screening", "settings": "post-emerge, 14 days after application, rating scale 0-100", "how_it_was_run": "as §3"}}, "data": [{"smiles": "COCC(C)=NNc1c(OC)c(Cl)cc(F)c1-n1c(=O)cc(C(F)(F)F)n(C)c1=O", "note": "[15-13]", "values": [{"measurement": "Post-emerge Herbicidal Activity RICE (crop damage rating)", "setting": "[1]; 63 g ai/ha", "result": 60}, {"measurement": "Post-emerge Herbicidal Activity RICE (crop damage rating)", "setting": "[1]; 250 g ai/ha", "result": 90}, {"measurement": "Post-emerge Herbicidal Activity CORN (crop damage rating)", "setting": "[2]; 63 g ai/ha", "result": 15}, {"measurement": "Post-emerge Herbicidal Activity CORN (crop damage rating)", "setting": "[2]; 250 g ai/ha", "result": 50}, {"measurement": "phytotoxicity rating ABUTH", "setting": "[3]; 46 g ai/ha", "result": 100}, {"measurement": "phytotoxicity rating ABUTH", "setting": "[3]; 185 g ai/ha", "result": 100}, {"measurement": "phytotoxicity rating CHEAL", "setting": "[4]; 46 g ai/ha", "result": 100}, {"measurement": "phytotoxicity rating CHEAL", "setting": "[4]; 185 g ai/ha", "result": 100}, {"measurement": "phytotoxicity rating ECHCG", "setting": "[5]; 46 g ai/ha", "result": 99}, {"measurement": "phytotoxicity rating ECHCG", "setting": "[5]; 185 g ai/ha", "result": 100}, {"measurement": "phytotoxicity rating IPOHE", "setting": "[6]; 46 g ai/ha", "result": 100}, {"measurement": "phytotoxicity rating IPOHE", "setting": "[6]; 185 g ai/ha", "result": 100}, {"measurement": "phytotoxicity rating SETVI", "setting": "[7]; 46 g ai/ha", "result": 100}, {"measurement": "phytotoxicity rating SETVI", "setting": "[7]; 185 g ai/ha", "result": 100}, {"measurement": "phytotoxicity rating SORHA", "setting": "[8]; 46 g ai/ha", "result": 99}, {"measurement": "phytotoxicity rating SORHA", "setting": "[8]; 185 g ai/ha", "result": 100}, {"measurement": "phytotoxicity rating CASOB", "setting": "[9]; 46 g ai/ha", "result": 100}, {"measurement": "phytotoxicity rating CASOB", "setting": "[9]; 185 g ai/ha", "result": 100}, {"measurement": "phytotoxicity rating DIGSA", "setting": "[10]; 46 g ai/ha", "result": 100}, {"measurement": "phytotoxicity rating DIGSA", "setting": "[10]; 185 g ai/ha", "result": 100}, {"measurement": "phytotoxicity rating RICE", "setting": "[11]; 46 g ai/ha", "result": 90}, {"measurement": "phytotoxicity rating RICE", "setting": "[11]; 185 g ai/ha", "result": 100}, {"measurement": "phytotoxicity rating CORN", "setting": "[12]; 46 g ai/ha", "result": 35}, {"measurement": "phytotoxicity rating CORN", "setting": "[12]; 185 g ai/ha", "result": 100}, {"measurement": "phytotoxicity rating AMARE", "setting": "[13]; 46 g ai/ha", "result": 100}, {"measurement": "phytotoxicity rating AMARE", "setting": "[13]; 185 g ai/ha", "result": 100}, {"measurement": "Post-emerge Herbicidal Activity ABUTH (phytotoxicity rating)", "setting": "[14]; 63 g ai/ha", "result": 100}, {"measurement": "Post-emerge Herbicidal Activity ABUTH (phytotoxicity rating)", "setting": "[14]; 250 g ai/ha", "result": 100}, {"measurement": "Post-emerge Herbicidal Activity CHEAL (phytotoxicity rating)", "setting": "[15]; 63 g ai/ha", "result": 95}, {"measurement": "Post-emerge Herbicidal Activity CHEAL (phytotoxicity rating)", "setting": "[15]; 250 g ai/ha", "result": 100}, {"measurement": "Post-emerge Herbicidal Activity ECHCG (phytotoxicity rating)", "setting": "[16]; 63 g ai/ha", "result": 20}, {"measurement": "Post-emerge Herbicidal Activity ECHCG (phytotoxicity rating)", "setting": "[16]; 250 g ai/ha", "result": 85}, {"measurement": "Post-emerge Herbicidal Activity IPOHE (phytotoxicity rating)", "setting": "[17]; 63 g ai/ha", "result": 100}, {"measurement": "Post-emerge Herbicidal Activity IPOHE (phytotoxicity rating)", "setting": "[17]; 250 g ai/ha", "result": 100}, {"measurement": "Post-emerge Herbicidal Activity SETVI (phytotoxicity rating)", "setting": "[18]; 63 g ai/ha", "result": 20}, {"measurement": "Post-emerge Herbicidal Activity SETVI (phytotoxicity rating)", "setting": "[18]; 250 g ai/ha", "result": 60}, {"measurement": "Post-emerge Herbicidal Activity AMARE (phytotoxicity rating)", "setting": "[19]; 63 g ai/ha, rating scale 0-100 (0 no damage, 100 complete death)", "result": 80}, {"measurement": "Post-emerge Herbicidal Activity AMARE (phytotoxicity rating)", "setting": "[19]; 250 g ai/ha, rating scale 0-100", "result": 95}, {"measurement": "Post-emerge Herbicidal Activity SORHA (phytotoxicity rating)", "setting": "[20]; 63 g ai/ha", "result": 10}, {"measurement": "Post-emerge Herbicidal Activity SORHA (phytotoxicity rating)", "setting": "[20]; 250 g ai/ha", "result": 70}, {"measurement": "Post-emerge Herbicidal Activity CASOB (phytotoxicity rating)", "setting": "[21]; 63 g ai/ha", "result": 60}, {"measurement": "Post-emerge Herbicidal Activity CASOB (phytotoxicity rating)", "setting": "[21]; 250 g ai/ha", "result": 100}, {"measurement": "Post-emerge Herbicidal Activity DIGSA (phytotoxicity rating)", "setting": "[22]; 63 g ai/ha", "result": 10}, {"measurement": "Post-emerge Herbicidal Activity DIGSA (phytotoxicity rating)", "setting": "[22]; 250 g ai/ha", "result": 70}]}]}
